Data set [1] has as its target T1, norepinephrine transporter (Homo sapiens, UniProt P23975). As to the kind of experiment: NE uptake: displacement of norephinephrine ligands in vitro (methods of Galli et al.). The class given is binding.
Data set [2] deals with T2, serotonin transporter (Homo sapiens, UniProt P31645). As to the kind of experiment: 5-HT uptake: displacement of serotonin ligands in vitro (methods of Gu et al.). The class given is binding.
Data set [3] concerns the target T1, norepinephrine transporter. As to the kind of experiment: Functional activity, norephinephrine uptake inhibition in MDCK cell lines. The class given is cell-based.
Data set [4] relates to Sprague-Dawley rats. Nature of the data set: Spontaneous locomotor activity in rats (Example 123). The class given is in vivo, rat. The settings on record: 20 mg/kg i.p., 60 minutes after administration. The method, then:
Male Sprague-Dawley rats, (Iffa Credo, Saint-Germain/L'Arbresle, France), weighing 200-250 g at the beginning of the study, were used.
During acclimatization period, rats were housed, 2 or 3 per cage, in Makrolon type III cages, in the animal room (temperature: 20±2° C., humidity: minimum 45%, air changes:>12 per hour, light/dark cycle of 12 h/12 h [on at 7:00 A.M.]). Animals were allowed a minimum of 5 days period before experiment for acclimatization.
Rats received food (TrouwNutrition, Vigny, France) and water (tap water in water bottle) ad libitum. Rats were placed on a sawdust bedding in their cages (Goldchips, Trouw Nutrition, Vigny, France). On the day before experiments, food was withdrawn to have animals fasted overnight.
On the day of experiment, test item(s) were solubilized in 5% dextrose (w/v)/polyethylene glycol (PEG) 400 (4:1 v/v).
All test compounds were administered at 20 mg/kg as a single i.p. dose.
Twenty, 60 and 120 minutes after administration, rats were placed in a plastic box 30×30 cm in a room with low light intensity (maximum 50 lux). Locomotor activity was determined during 20 min periods using a video image analyzer (Videotrack, View Point, France). Number of occurences, distance and duration of fast and slow movements, number of occurences and duration of periods of inactivity and number of rears were measured.

The test system of data set [5] is mouse. As to the kind of experiment: Acute toxicity assessment, maximum tolerated dose i.v., mouse. The data set is classed as in vivo. The settings on record: mice, 30 mg/kg i.v. The method, then:
(§1) An in vivo evaluation was carried out to determine the maximum tolerated dose of numerous test compounds in two animal species (mouse and rat). The compounds were administered i.v. and the animals were then observed for 72 h. Compounds 114, 115, 113, 110, 124, 125, 129, and 130 were solubilized in 5% dextrose (w/v)/polyethylene glycol 400 (4:1 v/v). Compounds 126, 127, 131, and 132 were solubilized in 10% hydroxypropyl-β-cyclodextrin (w/v).

For data set [6], the system named is rat. Nature of the data set: Acute toxicity assessment, maximum tolerated dose i.v., rat. The data set is classed as in vivo. The settings on record: rats, 30 mg/kg i.v. The protocol: as §1
For data set [7], the target named is DAT (Homo sapiens, UniProt Q01959). Nature of the data set: cell-based. The settings on record: hDAT cell line; read-out: DA Uptake, Functional Assays (antagonism, EC50). Details: expressed in transfected cells.
Data set [8] has as its target T2, serotonin transporter. As to the kind of experiment: Functional activity, serotonin uptake inhibition in human HEK-293 cell lines. Further details: expressed in transfected cells; host or cells: HEK-293. The settings on record: 5-HT Uptake, Functional Assays (antagonism, EC50, nM). The class given is cell-based.
Data set [9] deals with dopamine transporter (Homo sapiens, UniProt Q01959). As to the kind of experiment: DA uptake: displacement of dopamine ligands in vitro (methods of Gu et al.). Conditions: DA Uptake, Uptake Profile (IC50, nM), displacement of dopamine ligands in vitro.
The conditions of data set [10]: cited from earlier work.
The conditions of data set [11]: baboon, intravenous; cited from earlier work.
Data set [12] concerns the target dopamine transporter (Rattus norvegicus, UniProt P23977). The settings on record: read-out: binding affinity for the dopamine transporter (IC50); cited from earlier work.
For data set [13] the following is noted: locomotor activity tests; cited from earlier work.
Data set [14] concerns rats and monkeys. Conditions: cited from earlier work; for effect on self-administration of cocaine: rats and monkeys.
[15] abbreviates: NE Uptake, Uptake Profile (IC50, nM).
[16] abbreviates: displacement of serotonin ligands in vitro, read-out: 5-HT Uptake, Uptake Profile (IC50).

The structures appear in SMILES notation. Like-named read-outs stand apart in the source and are kept apart here.

The text below walks through data of patent US7294637B2 (Sepracor, Inc., priority 2000, dated 2007).

A word on the IC50: it is the concentration needed to halve the response being measured. What is called EC50 is the concentration at which the effect is half-maximal.

T1 sequence (P23975 whole entry): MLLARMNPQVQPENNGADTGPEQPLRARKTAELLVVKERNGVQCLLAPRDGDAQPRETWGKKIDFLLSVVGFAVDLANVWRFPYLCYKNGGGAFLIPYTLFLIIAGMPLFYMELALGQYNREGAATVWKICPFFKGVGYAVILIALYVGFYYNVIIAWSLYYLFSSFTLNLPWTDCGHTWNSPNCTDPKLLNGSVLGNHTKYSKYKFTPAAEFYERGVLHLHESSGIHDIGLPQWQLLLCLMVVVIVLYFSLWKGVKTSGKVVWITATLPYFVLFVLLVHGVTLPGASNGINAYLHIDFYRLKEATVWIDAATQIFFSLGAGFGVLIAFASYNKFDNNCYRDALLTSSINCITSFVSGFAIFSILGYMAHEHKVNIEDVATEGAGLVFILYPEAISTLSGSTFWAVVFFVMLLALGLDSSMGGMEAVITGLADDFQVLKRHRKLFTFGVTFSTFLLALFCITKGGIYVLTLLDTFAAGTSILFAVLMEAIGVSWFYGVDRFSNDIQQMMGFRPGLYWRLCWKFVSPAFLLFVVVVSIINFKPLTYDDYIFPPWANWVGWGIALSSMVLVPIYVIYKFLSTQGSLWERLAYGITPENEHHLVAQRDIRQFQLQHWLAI
Sequence of dopamine transporter (Homo sapiens, UniProt Q01959) (Q01959 whole entry): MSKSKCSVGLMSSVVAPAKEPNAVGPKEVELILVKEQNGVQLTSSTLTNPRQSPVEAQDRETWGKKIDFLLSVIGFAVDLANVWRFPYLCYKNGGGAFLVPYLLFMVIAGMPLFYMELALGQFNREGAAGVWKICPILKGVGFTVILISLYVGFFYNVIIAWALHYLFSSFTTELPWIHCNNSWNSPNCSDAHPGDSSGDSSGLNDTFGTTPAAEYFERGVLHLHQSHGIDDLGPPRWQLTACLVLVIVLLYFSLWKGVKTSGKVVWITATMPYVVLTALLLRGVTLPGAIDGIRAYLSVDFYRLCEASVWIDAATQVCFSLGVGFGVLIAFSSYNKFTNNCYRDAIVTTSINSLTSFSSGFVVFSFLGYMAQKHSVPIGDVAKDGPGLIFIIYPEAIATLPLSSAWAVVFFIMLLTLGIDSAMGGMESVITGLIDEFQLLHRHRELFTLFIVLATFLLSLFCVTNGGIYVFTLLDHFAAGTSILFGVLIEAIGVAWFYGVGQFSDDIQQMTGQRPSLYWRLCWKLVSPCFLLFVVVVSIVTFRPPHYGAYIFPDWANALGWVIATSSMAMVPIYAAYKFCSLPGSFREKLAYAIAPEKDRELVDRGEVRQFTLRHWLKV
Sequence of DAT (Q01959 whole entry): as above
T2 sequence (P31645 whole entry): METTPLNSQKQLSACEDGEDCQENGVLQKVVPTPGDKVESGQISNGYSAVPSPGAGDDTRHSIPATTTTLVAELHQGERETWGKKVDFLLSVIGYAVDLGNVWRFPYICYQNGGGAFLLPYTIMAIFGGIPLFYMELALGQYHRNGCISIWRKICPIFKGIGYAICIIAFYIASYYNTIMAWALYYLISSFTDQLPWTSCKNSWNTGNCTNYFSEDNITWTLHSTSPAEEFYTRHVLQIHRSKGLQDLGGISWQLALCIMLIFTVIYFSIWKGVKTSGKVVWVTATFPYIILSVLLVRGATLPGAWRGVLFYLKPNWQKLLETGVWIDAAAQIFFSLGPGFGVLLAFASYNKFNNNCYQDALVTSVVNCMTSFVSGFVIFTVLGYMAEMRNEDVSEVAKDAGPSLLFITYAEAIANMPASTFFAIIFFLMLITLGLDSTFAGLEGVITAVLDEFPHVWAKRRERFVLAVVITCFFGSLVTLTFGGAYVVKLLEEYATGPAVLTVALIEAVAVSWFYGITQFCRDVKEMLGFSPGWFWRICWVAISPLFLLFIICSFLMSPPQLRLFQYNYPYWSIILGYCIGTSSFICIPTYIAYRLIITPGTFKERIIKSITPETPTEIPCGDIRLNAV
Sequence of dopamine transporter (Rattus norvegicus, UniProt P23977) (P23977 whole entry): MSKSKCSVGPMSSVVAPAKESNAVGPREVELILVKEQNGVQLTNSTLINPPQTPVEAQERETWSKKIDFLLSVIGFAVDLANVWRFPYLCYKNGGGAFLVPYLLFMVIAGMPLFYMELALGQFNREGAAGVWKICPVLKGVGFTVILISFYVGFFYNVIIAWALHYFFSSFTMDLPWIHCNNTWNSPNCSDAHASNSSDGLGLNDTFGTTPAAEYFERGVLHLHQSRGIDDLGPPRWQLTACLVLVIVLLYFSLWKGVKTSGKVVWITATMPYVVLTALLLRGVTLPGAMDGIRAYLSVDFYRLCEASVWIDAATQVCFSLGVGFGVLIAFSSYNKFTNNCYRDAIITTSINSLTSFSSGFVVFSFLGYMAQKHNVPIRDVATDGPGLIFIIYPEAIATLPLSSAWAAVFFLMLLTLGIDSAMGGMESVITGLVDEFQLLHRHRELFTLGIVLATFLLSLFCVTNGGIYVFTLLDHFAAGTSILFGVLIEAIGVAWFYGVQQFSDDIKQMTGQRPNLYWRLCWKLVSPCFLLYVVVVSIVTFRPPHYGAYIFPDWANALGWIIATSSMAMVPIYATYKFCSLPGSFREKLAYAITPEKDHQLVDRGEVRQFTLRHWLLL

As to `FC(F)(F)c1ccc(OC[C@H]2CCCN(CC3(c4ccc(Cl)cc4)CCC3)C2)cc1` [compound 115, (S)-1-[1-(4-chloro-phenyl)-cyclobutylmethyl]-3-(4-trifluoromethyl-phenoxymethyl)-piperidine], the IC50 in data set [1] (setting [15]) is less than 1000 nM; in data set [2] (5-HT Uptake, Uptake Profile (IC50, nM)) it was more than 1000 nM; in [9] it was less than 100 nM. Besides, the concentration for a half-maximal effect (EC50) in [3] is less than 1000 nM; in data set [7], less than 10 nM; in data set [8] it was more than 1000 nM. Also, in data set [4], the “locomotor activity compared to control animals” value is “significant increase”. In addition, the “tolerability and mortality after 72 h” value in data set [5] and in data set [6] was “well tolerated” each time.
Consider `Clc1ccc(C2(CN3CCC[C@H](COc4ccc5c(c4)OCO5)C3)CCC2)cc1` [compound 113, (S)-3-(Benzo[1,3]dioxol-5-yloxymethyl)-1-[1-(4-chloro-phenyl)-cyclobutylmethyl]-piperidine], for which the 50% inhibitory concentration (IC50) in data set [1] (setting [15]) was less than 1000 nM; in data set [2] (setting [16]), less than 1000 nM; in [9] it was less than 100 nM. For the same compound, the 50% effective concentration (EC50) in data set [3] is less than 1000 nM; in [7], less than 10 nM; in [8], more than 1000 nM. For the same compound, in data set [4], the “locomotor activity compared to control animals” value is on record as “significant increase”. The “tolerability and mortality after 72 h” value in data set [5] and in data set [6] was “well tolerated” each time.
Take `COC(=O)[C@H]1[C@@H](OC(=O)c2ccccc2)C[C@@H]2CC[C@H]1N2C` [cocaine]: the “time of peak uptake into the brain” value in [10] (dosed intravenously) is 4 to 6 min. The “half-life in the brain” value in data set [10] (intravenous) was 20 min. Moreover, in data set [11], the “time to peak concentration in brain” value was 4 to 6 min.
As to `Cc1ccc(-c2cc([C@@H]3C4CCC(C[C@@H]3c3ccc(Cl)cc3)N4C)on2)cc1` (some centres unmarked) [RTI-336], the IC50 in [12] is 4.09 nM. For the same compound, the “time to peak action after administration” value in [13] is 70 to 100 min. Moreover, the “effect on self-administration of cocaine” value in [14] is on record as “effective blocking of cocaine self-administration”.
For `CN1[C@H]2CC[C@@H]1[C@@H](C(=O)Oc1ccccc1)[C@@H](c1ccc(Cl)cc1)C2` [RTI-113], in data set [12], the IC50 was 1.98 nM. Besides, in data set [13], the duration of action entry is “over 4 hours” and the “time to peak action after administration” value was 30 to 60 min. Besides, the “effectiveness of elimination of cocaine consumption” value in [14] (60% occupancy of the dopamine transporter) is 92%. The “effect on self-administration of cocaine” value in [14] was “inhibits self-administration of cocaine”.
Regarding `FC(F)(F)c1ccc(OC[C@@H]2CCCN(CC3(c4ccc(Cl)cc4)CCC3)C2)cc1` [compound 114, (R)-1-[1-(4-chloro-phenyl)-cyclobutylmethyl]-3-(4-trifluoromethyl-phenoxymethyl)-piperidine], the 50% inhibitory concentration (IC50) in data set [1] (read-out: NE Uptake, Uptake Profile (IC50)) was less than 1000 nM; in [2] (read-out: 5-HT Uptake, Uptake Profile (IC50)) it was more than 1000 nM; in [9], less than 100 nM. In addition, the figures for the half-maximal effective concentration (EC50) in [3], in data set [7] and in data set [8] were less than 1000 nM, less than 10 nM and more than 1000 nM, respectively. For the same compound, the “locomotor activity compared to control animals” value in data set [4] is “significant increase”. For the same compound, the “tolerability and mortality after 72 h” value in data set [5] and in data set [6] was “well tolerated” in each case.
Take `Clc1ccc(C2(CN3CCC[C@@H](COc4ccc5c(c4)OCO5)C3)CCC2)cc1` [compound 110, (R)-3-(Benzo[1,3]dioxol-5-yloxymethyl)-1-[1-(4-chloro-phenyl)-cyclobutylmethyl]-piperidine]: the figures for the IC50 in data set [1] (setting [15]), in data set [2] (setting [16]) and in [9] were less than 1000 nM, less than 1000 nM and less than 100 nM, respectively. Further, the EC50 in data set [3] is less than 1000 nM; in data set [7], less than 10 nM; in data set [8], more than 1000 nM. The “locomotor activity compared to control animals” value in data set [4] was “significant increase”. Besides, the “tolerability and mortality after 72 h” value in [5] and in data set [6] was “well tolerated” throughout.
